“Also recorded” adds a separate entry of the source. Counter-ions that a name gives are not always drawn. Like-named read-outs stand apart in the source and are kept apart here.
Assays:
[1] = tested on: Parkinson's disease model rats; assay: Hyperkinesia of the forelimbs and shortening of rotational behavior duration induced by repeated doses of levodopa; assay type: in vivo, rat; conditions: for rats that did not exhibit rotational behavior: 5 mg/kg oral
Excerpt: In rats with unilateral nigrostriatal dopamine nerve destruction generally used as Parkinson's disease animal models, it became clear that by administering levodopa by repeated dosage for about 5 weeks, behavior resembling the symptoms of advanced stage Parkinson's disease appeared. That is, in Parkinson's disease model rats prepared in the same way as in Example 4, along with repeated doses of levodopa, abnormal behavior such as involuntary extending of the forelimb or opening or closing of the hand, up-and-down movement of the wrist, choreiform tremor in the forelimb on the opposite side of microinjection of 6-hydroxydopamine was observed (FIG. 3). This abnormal behavior is reported by Steece-Collier et al. (Steece-Collier K. et al., “Embryonic mesencephalic grafts increase levodopa-induced forelimb hyperkinesia in parkinsonian rats”, Movement Disorders, 2003, 18, p. 1442-1454) as hyperkinesia of the forelimbs.
This appears dependent on the period of repeated doses of levodopa and reportedly is similar to clinical dyskinesia. […] Bibbiani et al. (Bibbiani F. et al., “Serotonin 5-HT1A agonist improves motor complications in rodent and primate parkinsonian models”, Neurology, 2001, 57, p. 1829-1834) report that in Parkinson's disease model rats, along with repeated doses of levodopa, a shortening of the rotational behavior duration is observed and that this phenomenon resembles the wearing off phenomenon in clinical studies.
That is, they treated each group by repeated doses of levodopa and repeated dosage of the tested substance for about 2 weeks (Monday to Friday) and observed the hyperkinesia of the forelimbs and rotational behavior after levodopa administration. Note that the SUN N4057 was subcutaneously administered right before levodopa administration, the sarizotan was orally administered about 20 minutes before levodopa dosage in accordance with above-mentioned known reports (Bibbiani F. et al., Neurology, 2001, 57, p. 1829-1834), and the Example Compound 4 of Japanese Patent Publication No. 2005-298402A was subcutaneously administered about 30 minutes before levodopa dosage in accordance with the above-mentioned Japanese Patent Publication No. 2005-298402A. Further, for the solvent, for SUN N4057 and Example Compound 4 of Japanese Patent Publication No. 2005-298402A, physiological saline was used.
In the same way as Example 4, Parkinson's disease model rats were prepared and the rats treated by repeated doses of levodopa (twice a day, Monday to Friday) for 5 weeks and measured for hyperkinesia of the forelimbs and rotational behavior. Further, based on the results of the hyperkinesia of the forelimbs and rotational behavior duration, the rats were assigned to the groups so as to prevent any significant difference between them, then the effects of the tested substances on these behaviors resembling symptoms of advanced stage Parkinson's disease patients were compared and studied. […] Note that compound Ib (0.3, 1 mg/kg) and compound Ic (0.3, 1 mg/kg) were both intraperitoneally administered right before levodopa administration. For the solvent, physiological saline was used.

[2] = biological target: T1, human serotonin 1A receptors (Homo sapiens, UniProt P08908); assay: Agonist/antagonist assay, [35S]GTPgammaS binding, human serotonin 1A receptors; assay type: biochemical; conditions: for EC50 / Emax / IC50: Serotonin 1A; for agonist activity (in words): human serotonin 1A receptors
T1 construct: expressed in transfected cells; host or cells: CHO-K1
T1 sequence (P08908 1-422): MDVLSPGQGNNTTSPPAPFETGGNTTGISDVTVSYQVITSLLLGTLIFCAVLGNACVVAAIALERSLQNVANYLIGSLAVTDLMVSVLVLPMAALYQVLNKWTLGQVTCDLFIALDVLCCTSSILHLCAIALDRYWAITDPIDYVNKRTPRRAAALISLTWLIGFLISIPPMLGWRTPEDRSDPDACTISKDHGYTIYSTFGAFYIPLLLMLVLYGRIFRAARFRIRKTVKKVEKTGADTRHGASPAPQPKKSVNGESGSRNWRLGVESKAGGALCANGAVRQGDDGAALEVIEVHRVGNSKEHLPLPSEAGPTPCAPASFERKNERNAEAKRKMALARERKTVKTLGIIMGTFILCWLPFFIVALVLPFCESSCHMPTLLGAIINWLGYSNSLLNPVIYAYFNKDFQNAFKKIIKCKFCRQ
Experimental: (§1) For the tests, membrane specimens prepared from Chinese hamster ovary (CHO-K1) cells expressing human serotonin 1A receptors, Chinese hamster ovary (CHO) cells expressing human dopamine D2L receptors, Chinese hamster ovary (CHO) cells expressing human dopamine D2S receptors and Chinese hamster ovary (CHO) cells expressing human dopamine D3 receptors were used. In the agonist assays, for the serotonin 1A receptors, [^35S] GTPγS (final concentration 0.1 nM), a GDP solution (final concentration 3 μM), the test sample solution and a membrane specimen were added to a 20 mM Hepes-NaOH buffer (pH 7.4) containing 100 mM NaCl, 3 mM MgCl2 and 10 μg/mL saponin and allowed to react at 25° C. for 30 minutes. Further, for the dopamine (D2L, D2S and D3) receptors, [^35S] GTPγS (i.e., final concentration 0.1 nM), a GDP solution (final concentration 3 μM), the test sample solution and a membrane specimen were added to a 20 mM Hepes-NaOH buffer (pH 7.4) containing 100 mM NaCl, 10 mM MgCl2, 1 mM DTT and 1 mM EDTA and allowed to react at 30° C. for 15 minutes (in the case of D2L receptors) or for 30 minutes (in the cases of D2S and D3 receptors). Further, in the antagonist assays, except for adding to the reaction solutions 10 μM 5-carboxamide tryptamine (5-CT) (in the case of serotonin 1A receptors), 3 μM dopamine (in the cases of D2L and D2S receptors), or 0.1 μM dopamine (in the case of D3 receptors), operations were performed similar to the agonistic tests. After the end of the reaction, the reaction solution was filtered with a cell harvester, the filtered filter paper was transferred to a measurement vial, a liquid scintillator was added, and the radioactivity of the [^35S] GTPγS remaining on the filter paper was determined by a liquid scintillation counter. The human serotonin 1A receptor and human dopamine (D2L, D2S, and D3) receptor agonist/antagonist activities of the test sample were expressed as the rates of increase, when making the increase in [^35S] GTPγS bonds due to 10 μM 5-CT (in the case of serotonin 1A receptors), 3 μM dopamine (in the cases of D2L and D2S receptors), or 0.1 μM dopamine (in the case of D3 receptors) 100%. From the bond increasing rate, a regression formula was used to calculate the 50% reaction concentration (EC50) and 50% inhibition concentration (IC50).

[3] = biological target: T2, human dopamine D2L receptors (Homo sapiens, UniProt P14416); assay: Agonist/antagonist assay, [35S]GTPgammaS binding, human dopamine D2L receptors; assay type: biochemical; conditions: for EC50 / Emax / IC50: Dopamine D2L; for antagonist activity (in words): human dopamine D2L receptors
T2 construct: expressed in transfected cells; host or cells: CHO
Experimental: as §1

[4] = 0.03, 0.1 mg/kg s.c. repeated 2 weeks
[5] = 10 μM 5-CT = 100%, read-out: Agonist assay Emax
[6] = with 10 μM 5-CT, read-out: Antagonist assay Emax
[7] = 3 μM dopamine = 100%, read-out: Agonist assay Emax
[8] = with 3 μM dopamine, read-out: Antagonist assay Emax
[9] = 1, 3 mg/kg s.c. repeated 2 weeks

T2 sequence (P14416 whole entry): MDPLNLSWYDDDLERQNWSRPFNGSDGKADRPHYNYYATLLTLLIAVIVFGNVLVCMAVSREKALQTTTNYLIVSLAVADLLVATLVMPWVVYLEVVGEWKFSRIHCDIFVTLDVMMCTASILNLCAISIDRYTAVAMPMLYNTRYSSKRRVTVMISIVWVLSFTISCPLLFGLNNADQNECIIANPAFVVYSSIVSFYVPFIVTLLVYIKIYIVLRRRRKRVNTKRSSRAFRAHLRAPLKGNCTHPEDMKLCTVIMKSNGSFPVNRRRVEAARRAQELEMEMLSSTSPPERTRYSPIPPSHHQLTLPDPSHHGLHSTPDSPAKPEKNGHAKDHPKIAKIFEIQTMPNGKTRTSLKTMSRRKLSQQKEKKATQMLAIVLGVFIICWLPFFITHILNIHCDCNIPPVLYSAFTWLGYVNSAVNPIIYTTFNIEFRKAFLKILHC

| Compound | EC50 [2] [nM] | Emax [2, 5] [%] | IC50 ([2]; with 10 μM 5-CT) [nM] | Emax [2, 6] [%] | agonist activity (in words) [2] | EC50 [3] [nM] | Emax [3, 7] [%] | IC50 ([3]; with 3 μM dopamine) [nM] | Emax [3, 8] [%] | antagonist activity (in words) [3] | further results |
| --- | --- | --- | --- | --- | --- | --- | --- | --- | --- | --- | --- |
| O=C1c2ccccc2OC=C(Cl)N1CCCCN1CC=C(c2ccccn2)CC1 [SUN N4057, 3-chloro-4,5-dihydro-4-{4-[4-(2-pyridyl)-1,2,3,6-tetrahydropyridin-1-yl]butyl}-1,4-benzoxazepin-5-one.dihydrochloride-dihydrate] | 2.41 | 100 | > 100 | 3 | particularly strong in activity; also recorded: powerful agonist action | > 500 | 27 | > 500 | 47 | does not have an antagonist action | hyperkinesia of the forelimbs ([1]; 0.03 mg/kg s.c. repeated 2 weeks, 1 hour after levodopa dosage): significantly inhibited; hyperkinesia of the forelimbs ([1]; 0.1 mg/kg s.c. repeated 2 weeks, 1 and 2 hours after levodopa dosage): significantly inhibited; end of the rotational behavior [1, 4]: significantly prolonged; rotational behavior duration [1, 4]: significantly prolonged |
| Cl.Cl.Fc1ccc(-c2cncc(CNC[C@H]3CCc4ccccc4O3)c2)cc1 [Sarizotan, 1-[(2R)-3,4-dihydro-2H-chromen-2-yl]-N-{[5-(4-fluorophenyl)pyridin-3-yl]methyl}methanamine dihydrochloride] | 2.4 | 100 | > 100 | 4 | particularly strong in activity | > 500 | 2 | 13.3 | 101 | antagonist activity | rotational behavior duration ([1]; 5 mg/kg oral repeated 2 weeks): significant shortening; hyperkinesia of the forelimbs ([1]; 5 mg/kg oral repeated 2 weeks, 1 hour after levodopa dosage, p=0.099): tendency of the hyperkinesia of the forelimbs to be inhibited; rats that did not exhibit rotational behavior ([1]; 30 minutes after levodopa dosage): Six out of nine; rats that did not exhibit rotational behavior ([1]; 1 hour after levodopa dosage): three out of nine; start of rotational behavior due to levodopa dosage ([1]; 1 and 5 mg/kg oral repeated 2 weeks): delay in the start of rotational behavior; hyperkinesia of the forelimbs, compared with the solvent group (Dunnett's test) ([1]; repeated oral administration, week 7 of levodopa): no significant difference |
| Cl.Cl.O=c1[nH]c2cccc(C3CCCN(Cc4cncc(-c5ccc(F)cc5)c4)C3)c2o1 (stereo not shown) [7-(1-{[5-(4-fluorophenyl)pyridin-3-yl]methyl}piperidin-3-yl)-1,3-benzoxazol-2(3H)-one dihydrochloride] | 108 | 100 | > 20000 | 14 |  | > 500 | 18 | 72.9 | 75 | antagonist activity | rotational behavior duration ([1]; 3 mg/kg s.c. repeated 2 weeks): significant prolongation; end of the rotational behavior [1, 9]: prolonged; start of rotational behavior [1, 9]: started earlier; hyperkinesia of the forelimbs ([1]; 1, 3 mg/kg s.c. repeated 2 weeks, vs physiological saline group, dihydrochloride): no action was exhibited; also recorded: no significant difference |
